According to PubChem BioAssay (NCI):
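Tested at 5 concentrations; 48 h exposure; 96-well plates; endpoints linearly interpolated, else capped at highest concentration. GI50 is the concentration that inhibits growth by half. Definition used: TGI = concentration required for complete inhibition of growth.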

Assays:
Assay in all cases: NCI tumour cell line growth inhibition, 48 h
786-0 renal = system: 786-0 renal
A498 renal = system: A498 renal
A549 NSCLC = system: A549 NSCLC
ACHN renal = system: ACHN renal
BT-549 breast = system: BT-549 breast
CAKI-1 renal = system: CAKI-1 renal
CCRF-CEM leukemia = system: CCRF-CEM leukemia
COLO 205 colon = system: COLO 205 colon
DU-145 prostate = system: DU-145 prostate
EKVX NSCLC = system: EKVX NSCLC
HCC-2998 colon = system: HCC-2998 colon
HCT-116 colon = system: HCT-116 colon
HCT-15 colon = system: HCT-15 colon
HL-60(TB) leukemia = system: HL-60(TB) leukemia
HOP-62 NSCLC = system: HOP-62 NSCLC
HOP-92 NSCLC = system: HOP-92 NSCLC
HS 578T breast = system: HS 578T breast
HT29 colon = system: HT29 colon
IGROV1 ovarian = system: IGROV1 ovarian
K-562 leukemia = system: K-562 leukemia
KM12 colon = system: KM12 colon
LOX IMVI melanoma = system: LOX IMVI melanoma
M14 melanoma = system: M14 melanoma
MALME-3M melanoma = system: MALME-3M melanoma
MCF7 breast = system: MCF7 breast
MDA-MB-231 breast = system: MDA-MB-231 breast
MDA-MB-435 = system: MDA-MB-435
MOLT-4 leukemia = system: MOLT-4 leukemia
NCI-H226 lung = system: NCI-H226 lung
NCI-H23 lung = system: NCI-H23 lung
NCI-H460 lung = system: NCI-H460 lung
NCI-H522 lung = system: NCI-H522 lung
NCI/ADR-RES ovarian = system: NCI/ADR-RES ovarian
OVCAR-3 ovarian = system: OVCAR-3 ovarian
OVCAR-4 ovarian = system: OVCAR-4 ovarian
OVCAR-5 ovarian = system: OVCAR-5 ovarian
OVCAR-8 ovarian = system: OVCAR-8 ovarian
PC-3 prostate = system: PC-3 prostate
RPMI-8226 leukemia = system: RPMI-8226 leukemia
RXF 393 renal = system: RXF 393 renal
SF-268 CNS = system: SF-268 CNS
SF-295 CNS = system: SF-295 CNS
SF-539 CNS = system: SF-539 CNS
SK-MEL-2 melanoma = system: SK-MEL-2 melanoma
SK-MEL-28 melanoma = system: SK-MEL-28 melanoma
SK-MEL-5 melanoma = system: SK-MEL-5 melanoma
SK-OV-3 ovarian = system: SK-OV-3 ovarian
SN12C renal = system: SN12C renal
SNB-19 CNS = system: SNB-19 CNS
SNB-75 CNS = system: SNB-75 CNS
SW-620 colon = system: SW-620 colon
T-47D breast = system: T-47D breast
TK-10 renal = system: TK-10 renal
U251 CNS = system: U251 CNS
UACC-257 melanoma = system: UACC-257 melanoma
UACC-62 melanoma = system: UACC-62 melanoma
UO-31 renal = system: UO-31 renal
SR leukemia = system: SR leukemia

O=S1(=O)OC(c2ccc(O)cc2)(c2ccc(O)cc2)c2ccccc21
TGI (786-0 renal): > 100 µM
TGI (A498 renal): > 100 µM
TGI (A549 NSCLC): > 100 µM
TGI (ACHN renal): > 100 µM
TGI (BT-549 breast): > 100 µM
TGI (CAKI-1 renal): > 100 µM
TGI (CCRF-CEM leukemia): > 100 µM
TGI (COLO 205 colon): > 100 µM
TGI (DU-145 prostate): > 100 µM
TGI (EKVX NSCLC): > 100 µM
TGI (HCC-2998 colon): > 100 µM
TGI (HCT-116 colon): > 100 µM
TGI (HCT-15 colon): > 100 µM
TGI (HL-60(TB) leukemia): > 100 µM
TGI (HOP-62 NSCLC): > 100 µM
TGI (HOP-92 NSCLC): > 100 µM
TGI (HS 578T breast): > 100 µM
TGI (HT29 colon): > 100 µM
TGI (IGROV1 ovarian): > 100 µM
TGI (K-562 leukemia): > 100 µM
TGI (KM12 colon): > 100 µM
TGI (LOX IMVI melanoma): > 100 µM
TGI (M14 melanoma): > 100 µM
TGI (MALME-3M melanoma): > 100 µM
TGI (MCF7 breast): > 100 µM
TGI (MDA-MB-231 breast): > 100 µM
TGI (MDA-MB-435): > 100 µM
TGI (MOLT-4 leukemia): > 100 µM
TGI (NCI-H226 lung): > 100 µM
TGI (NCI-H23 lung): > 100 µM
TGI (NCI-H460 lung): > 100 µM
TGI (NCI-H522 lung): > 100 µM
TGI (NCI/ADR-RES ovarian): > 100 µM
TGI (OVCAR-3 ovarian): > 100 µM
TGI (OVCAR-4 ovarian): > 100 µM
TGI (OVCAR-5 ovarian): > 100 µM
TGI (OVCAR-8 ovarian): > 100 µM
TGI (PC-3 prostate): > 100 µM
TGI (RPMI-8226 leukemia): > 100 µM
TGI (RXF 393 renal): > 100 µM
TGI (SF-268 CNS): > 100 µM
TGI (SF-295 CNS): > 100 µM
TGI (SF-539 CNS): > 100 µM
TGI (SK-MEL-2 melanoma): > 100 µM
TGI (SK-MEL-28 melanoma): > 100 µM
TGI (SK-MEL-5 melanoma): > 100 µM
TGI (SK-OV-3 ovarian): > 100 µM
TGI (SN12C renal): > 100 µM
TGI (SNB-19 CNS): > 100 µM
TGI (SNB-75 CNS): > 100 µM
TGI (SW-620 colon): > 100 µM
TGI (T-47D breast): > 100 µM
TGI (TK-10 renal): > 100 µM
TGI (U251 CNS): > 100 µM
TGI (UACC-257 melanoma): > 100 µM
TGI (UACC-62 melanoma): > 100 µM
TGI (UO-31 renal): > 100 µM

CC1(C)CCC2(C(=O)OC3OC(CO)C(O)C(O)C3O)CCC3(C)C(=CCC4C5(C)CCC(OC6OC(CO)C(O)C(O)C6O)C(C)(C)C5CCC43C)C2C1 (centres undefined)
TGI (786-0 renal): > 25 µM
TGI (A498 renal): > 25 µM
TGI (A549 NSCLC): > 25 µM
TGI (ACHN renal): > 25 µM
TGI (BT-549 breast): > 25 µM
TGI (CAKI-1 renal): > 25 µM
TGI (CCRF-CEM leukemia): 14 µM
TGI (COLO 205 colon): > 25 µM
TGI (DU-145 prostate): > 25 µM
TGI (EKVX NSCLC): > 25 µM
TGI (HCC-2998 colon): 9.83 µM
TGI (HCT-116 colon): > 25 µM
TGI (HCT-15 colon): > 25 µM
TGI (HL-60(TB) leukemia): 16.4 µM
TGI (HOP-62 NSCLC): > 25 µM
TGI (HOP-92 NSCLC): > 25 µM
TGI (HS 578T breast): > 25 µM
TGI (HT29 colon): > 25 µM
TGI (IGROV1 ovarian): > 25 µM
TGI (K-562 leukemia): > 25 µM
TGI (KM12 colon): 19 µM
TGI (LOX IMVI melanoma): 8.51 µM
TGI (M14 melanoma): > 25 µM
TGI (MALME-3M melanoma): > 25 µM
TGI (MCF7 breast): > 25 µM
TGI (MDA-MB-231 breast): > 25 µM
TGI (MDA-MB-435): > 25 µM
TGI (MOLT-4 leukemia): 13.7 µM
TGI (NCI-H226 lung): > 25 µM
TGI (NCI-H23 lung): > 25 µM
TGI (NCI-H460 lung): > 25 µM
TGI (NCI-H522 lung): 12.9 µM
TGI (OVCAR-3 ovarian): > 25 µM
TGI (OVCAR-4 ovarian): > 25 µM
TGI (OVCAR-5 ovarian): > 25 µM
TGI (OVCAR-8 ovarian): > 25 µM
TGI (PC-3 prostate): > 25 µM
TGI (RPMI-8226 leukemia): 10.7 µM
TGI (RXF 393 renal): > 25 µM
TGI (SF-268 CNS): 21.8 µM
TGI (SF-295 CNS): > 25 µM
TGI (SF-539 CNS): 12.8 µM
TGI (SK-MEL-2 melanoma): 14.8 µM
TGI (SK-MEL-28 melanoma): > 25 µM
TGI (SK-MEL-5 melanoma): > 25 µM
TGI (SK-OV-3 ovarian): > 25 µM
TGI (SN12C renal): > 25 µM
TGI (SNB-19 CNS): > 25 µM
TGI (SNB-75 CNS): > 25 µM
TGI (SR leukemia): 10.7 µM
TGI (SW-620 colon): > 25 µM
TGI (T-47D breast): 24.3 µM
TGI (TK-10 renal): > 25 µM
TGI (U251 CNS): 10.4 µM
TGI (UACC-257 melanoma): > 25 µM
TGI (UACC-62 melanoma): > 25 µM
TGI (UO-31 renal): > 25 µM

Cc1cc(N2CCCCCC2)nc(NC2CCCC(Nc3ccnc4cc(Cl)ccc34)C2)n1 (centres undefined)
GI50 (786-0 renal): 1.27 µM
TGI (786-0 renal): 2.6 µM
GI50 (A498 renal): 1.44 µM
TGI (A498 renal): 2.86 µM
GI50 (ACHN renal): 1.54 µM
TGI (ACHN renal): 2.87 µM
GI50 (BT-549 breast): 1.44 µM
TGI (BT-549 breast): 3.09 µM
GI50 (DU-145 prostate): 1.61 µM
TGI (DU-145 prostate): 2.99 µM
GI50 (HOP-62 NSCLC): 1.63 µM
TGI (HOP-62 NSCLC): 3.15 µM
GI50 (HS 578T breast): 1.8 µM
TGI (HS 578T breast): 4.42 µM
GI50 (M14 melanoma): 1.19 µM
TGI (M14 melanoma): 2.74 µM
GI50 (MDA-MB-435): 1.63 µM
TGI (MDA-MB-435): 3.08 µM
GI50 (NCI-H226 lung): 2.01 µM
TGI (NCI-H226 lung): 3.76 µM
GI50 (OVCAR-3 ovarian): 1.76 µM
TGI (OVCAR-3 ovarian): 3.39 µM
GI50 (OVCAR-4 ovarian): 1.56 µM
TGI (OVCAR-4 ovarian): 3.25 µM
GI50 (PC-3 prostate): 1.63 µM
TGI (PC-3 prostate): 3.2 µM
GI50 (RXF 393 renal): 1.2 µM
TGI (RXF 393 renal): 2.58 µM
GI50 (SF-295 CNS): 1.45 µM
TGI (SF-295 CNS): 2.84 µM
GI50 (SK-MEL-5 melanoma): 1.67 µM
TGI (SK-MEL-5 melanoma): 3.04 µM
GI50 (SK-OV-3 ovarian): 1.77 µM
TGI (SK-OV-3 ovarian): 3.23 µM
GI50 (TK-10 renal): 1.99 µM
TGI (TK-10 renal): 3.54 µM
GI50 (U251 CNS): 1.47 µM
TGI (U251 CNS): 2.78 µM
GI50 (UACC-257 melanoma): 2.17 µM
TGI (UACC-257 melanoma): 3.7 µM
